Experimental data taken from patent EP4324461A1, “(E)-N-CINAMOYLAMINOALKANOLES WITH MELANOGENESIS INHIBITORY ACTIVITY” (UNIWERSYTET JAGIELLONSKI, priority 2022, dated 2024).

Assays:
[1] = test system: human reconstructed epidermis Episkin™; test: Skin permeation in reconstructed human epidermis (Episkin); assay type: in vitro ADME
Protocol: The tested substance A-111 in a macrogol formulation (2% A-111 in the PEG400+PEG800 base) was applied onto the epidermis in an amount of approximately 10 mg/cm^2 ("finite dose application") using a sterile inoculation loop. The amount applied was weighed accurately. As a control, a macrogol formulation without the test substance was applied onto the epidermis. The finished experimental plate was incubated at 32 °C. At specific time intervals, aliquots of the receptor fluid (0.5 mL) were collected for the analysis and replaced with 0.5 mL of fresh receptor fluid. After 24 h of culture, all of the receptor fluid was collected. The examined tissue was washed with cotton buds soaked in methanol. The donor and receptor compartments were washed with methanol, and the epidermis was separated from the inserts and transferred to methanol. Samples were stored at -20 °C until analysis. The content (concentration) of the tested substance A-111 in the receptor fluid and in individual compartments: on the surface of the epidermis, in the epidermis, in the receptor fluid was determined using measurements in a microplate reader at 281 nm on 96-well plates transmitting ultraviolet radiation.
In order to confirm proper bioavailability, studies of the permeation of compound A-111 from a solution in PEG400 were performed in a model of reconstructed human epidermis. […] The tested substance A-111 was applied onto the epidermis in the form of a 2% PEG400 solution in an amount of 15 µL. The finished experimental plate was incubated at 32 °C. At specific time intervals, aliquots of the receptor fluid (0.5 mL) were collected for the analysis and replaced with fresh fluid. After 24 h of culture, all of the receptor fluid was collected. The examined tissue was washed with cotton buds soaked in methanol. The donor and receptor compartments were washed with methanol, and the epidermis was separated from the inserts and transferred to methanol. The content (concentration) of the tested substance A-111 in the acceptor fluid and in individual compartments: on the surface of the epidermis, in the epidermis, in the receptor fluid was determined using measurements in a microplate reader at 281nm on 96-well plates transmitting ultraviolet radiation.
Permeation studies of the A-111 compound from a cosmetic formulation were performed in a model of reconstructed human epidermis. […] 25 µL of the formulation containing the tested compound A-111 was applied to the epidermis. […] The content (concentration) of the tested substance A-111 in the receptor fluid and in individual compartments: on the surface of the epidermis, in the epidermis, in the receptor fluid was determined using measurements in a microplate reader at 281 nm on 96-well plates transmitting ultraviolet radiation.

[2] = target: T1, tyrosinase released from B16-F10 cells (Mus musculus, UniProt P11344); test: Inhibition of tyrosinase activity released from B16-F10 cells; assay type: cell-based, murine; conditions: α-MSH induced cells, lysate, L-DOPA 0.5 mM
T1 construct: endogenous in cells; host or cells: B16-F10 murine melanoma cells, α-MSH stimulated, Triton X-100 lysate
Protocol: 50,000 cells were placed in each well of a 24-well plate (in F10-Ham medium, 1% FBS). After 24 h of culture, the tested compounds were added in fresh medium (DMEM, 1% FBS), with an additional 5 µM of α-melanocorticotropic hormone (α-MSH) in the medium to induce melanogenesis. Three wells on the plate constituted a control sample without the melanogenesis inducer (α-MSH) and without the tested compounds. After 24 hours of incubation under these conditions, the medium was removed and the cells were washed twice with PBS. 100 µL of lysis buffer composed of 90 µL of 50 mM potassium phosphate buffer, 5 µL of 0.1 mM phenylmethylsulfonyl fluoride and 5 µL of 1% Triton X-100 were added to the wells. The plates were placed at -80 °C for 30 minutes. Cell lysates were then centrifuged for 30 min (4 °C, 12,000 rpm), and then 80 µL of the supernatant was transferred to 96-well plates. […] After a 30-minute incubation, the absorbance was measured at 475 nm using a microplate reader. The percentage of inhibition of tyrosinase activity was calculated using the formula: [(AC -AT)/AC] × 100, where AC - is the absorbance of the negative control (from wells in which cells were cultured without the tested compounds), AT - is the absorbance of the sample from wells in which cells were cultured in the presence of the test compound.

[3] = 2% A-111 in the PEG400+PEG800 base, approx. 10 mg/cm^2, 24 h

T1 sequence (P11344 19-533): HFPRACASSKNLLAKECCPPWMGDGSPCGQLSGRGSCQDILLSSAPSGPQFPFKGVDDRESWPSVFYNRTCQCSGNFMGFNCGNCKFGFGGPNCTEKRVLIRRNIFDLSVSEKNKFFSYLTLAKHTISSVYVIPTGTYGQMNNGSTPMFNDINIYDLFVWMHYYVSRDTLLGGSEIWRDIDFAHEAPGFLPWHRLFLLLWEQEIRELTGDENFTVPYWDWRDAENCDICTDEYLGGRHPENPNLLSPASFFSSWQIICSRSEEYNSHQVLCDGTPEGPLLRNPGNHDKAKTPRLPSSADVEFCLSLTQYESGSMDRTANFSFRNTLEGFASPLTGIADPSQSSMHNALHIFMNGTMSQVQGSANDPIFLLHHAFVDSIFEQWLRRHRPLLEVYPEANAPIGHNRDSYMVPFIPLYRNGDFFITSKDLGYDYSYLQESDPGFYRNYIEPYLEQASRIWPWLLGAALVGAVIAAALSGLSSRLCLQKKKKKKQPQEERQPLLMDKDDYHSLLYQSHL

## O=C(/C=C/c1ccc(Cl)cc1)NCCCCCO [Compound A-111, (2E)-3-(4-chlorophenyl)-N-(5-hydroxypentyl)prop-2-enamide]
[1]; [3]
  accumulation in the epidermis: no accumulation of compound A-111 in the epidermis
  permeation through the epidermis: crosses the epidermal barrier and has the potential to penetrate the dermis
[1]; 2% PEG400 solution, 15 µL, 24 h
  permeation through the epidermis: crosses the epidermal barrier and has the potential to penetrate the dermis
[1]; 25 µL of the cosmetic formulation (0.74% A-111), 24 h
  permeation through the epidermis: crosses the epidermal barrier and has the potential to penetrate the dermis
[2]
  inhibition of tyrosinase activity released from B16-F10 cells: inhibit the activity of tyrosinase released from B16-F10 cells
